Among the data in ChEMBL document CHEMBL1136147, “Sub-nanomolar hMC1R agonists by end-capping of the melanocortin tetrapeptide His-D-Phe-Arg-Trp-NH(2)” (Bioorg Med Chem Lett, 2003) are EC50 and Ki values, retold here.

Broadly, the EC50 is the concentration needed to bring the measured effect to its halfway point. Read a high EC50 as weaker potency. In general, Ki refers to a measure of affinity in units of concentration, obtained from inhibition or displacement. Low values mean higher affinity, high ones lower affinity.

Assay [1] addresses T1, Melanocyte-stimulating hormone receptor (Homo sapiens, UniProt Q01726). The experiment in a line: In vitro agonist potency was evaluated in HEK293 cells transfected with human melanocortin receptor (hMC1R). Type of assay: functional, cell-based.
Assay [2] deals with T2, Melanocortin receptor 4 (Homo sapiens, UniProt P32245). The assay can be described thus: Binding affinity towards human melanocortin 4 receptor (hMC4R).
T2 sequence (P32245 whole entry): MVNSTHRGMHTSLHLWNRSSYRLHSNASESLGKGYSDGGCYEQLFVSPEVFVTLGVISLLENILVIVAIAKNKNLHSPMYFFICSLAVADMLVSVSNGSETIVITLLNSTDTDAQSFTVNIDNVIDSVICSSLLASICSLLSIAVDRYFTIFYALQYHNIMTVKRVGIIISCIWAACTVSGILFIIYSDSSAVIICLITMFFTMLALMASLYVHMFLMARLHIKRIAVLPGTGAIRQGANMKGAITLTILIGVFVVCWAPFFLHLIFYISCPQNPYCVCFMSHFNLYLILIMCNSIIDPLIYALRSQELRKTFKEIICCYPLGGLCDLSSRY
For assay [3], the target named is T3, Melanocortin receptor 3 (Homo sapiens, UniProt P41968). The assay can be described thus: In vitro agonist potency was evaluated in HEK293 cells transfected with human melanocortin receptor (hMC3R). It counts as functional, cell-based.
T3 sequence (P41968 whole entry): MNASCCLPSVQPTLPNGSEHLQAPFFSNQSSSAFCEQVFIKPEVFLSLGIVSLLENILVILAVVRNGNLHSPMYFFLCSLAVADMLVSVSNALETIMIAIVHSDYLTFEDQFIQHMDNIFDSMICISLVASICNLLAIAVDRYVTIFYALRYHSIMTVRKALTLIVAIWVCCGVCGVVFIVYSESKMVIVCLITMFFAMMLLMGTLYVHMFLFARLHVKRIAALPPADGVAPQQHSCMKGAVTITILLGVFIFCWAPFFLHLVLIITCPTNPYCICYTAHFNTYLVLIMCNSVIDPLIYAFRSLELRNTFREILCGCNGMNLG
The target in assay [4] is T1, Melanocyte-stimulating hormone receptor. The assay can be described thus: Binding affinity towards human Melanocortin 1 receptor (hMC1R).
For assay [5], the target named is T3, Melanocortin receptor 3. The experiment in a line: Binding affinity towards human Melanocortin 3 receptor (hMC3R).
The target of assay [6] is T2, Melanocortin receptor 4. The experiment in a line: In vitro agonist potency was evaluated in HEK293 cells transfected with human melanocortin receptor (hMC4R). It counts as functional, cell-based.

T1 sequence (Q01726 whole entry): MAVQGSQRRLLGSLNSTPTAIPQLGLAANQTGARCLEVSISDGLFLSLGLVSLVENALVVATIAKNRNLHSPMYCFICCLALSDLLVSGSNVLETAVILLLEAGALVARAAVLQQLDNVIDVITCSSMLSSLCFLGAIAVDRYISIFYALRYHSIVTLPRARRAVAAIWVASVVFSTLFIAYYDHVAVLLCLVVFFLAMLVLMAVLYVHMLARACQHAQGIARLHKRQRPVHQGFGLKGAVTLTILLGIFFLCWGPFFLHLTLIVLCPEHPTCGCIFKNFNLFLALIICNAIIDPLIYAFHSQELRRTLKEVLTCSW

Regarding `CCCC(=O)N[C@@H](Cc1cnc[nH]1)C(=O)N[C@@H](Cc1ccccc1)C(=O)N[C@@H](CCCNC(=N)N)C(=O)N[C@@H](Cc1c[nH]c2ccccc12)C(N)=O`, the EC50 amounted to 4.5 nM in assay [1], 93.3 nM in assay [3] and 38.5 nM in assay [6]. Also, the Ki stood at 150 nM in assay [2], 37.5 nM in assay [4] and 580 nM in assay [5].
Regarding `N=C(N)NCCC[C@H](NC(=O)[C@H](Cc1ccccc1)NC(=O)[C@H](Cc1c[nH]cn1)NC(=O)C(O)Cc1ccccc1)C(=O)N[C@@H](Cc1c[nH]c2ccccc12)C(N)=O` (some centres undefined), the EC50 in assay [1] came out at 8 nM; in assay [3] it was 40.5 nM; in assay [6] it was 6.3 nM. In addition, the values for the Ki in assay [2], in assay [4] and in assay [5] were 15.5 nM, 11.5 nM and 140 nM, respectively.
Turning to `CC(C)C(=O)N[C@@H](Cc1cnc[nH]1)C(=O)N[C@@H](Cc1ccccc1)C(=O)N[C@@H](CCCNC(=N)N)C(=O)N[C@@H](Cc1c[nH]c2ccccc12)C(N)=O`, the EC50 in assay [1] came out at 7 nM; in assay [3], 130 nM; in assay [6], 24 nM. Also, the Ki in assay [2] came out at 97.5 nM; in assay [4] it was 40 nM; in assay [5], 280 nM.
For `COCC(=O)N[C@@H](Cc1cnc[nH]1)C(=O)N[C@@H](Cc1ccccc1)C(=O)N[C@@H](CCCNC(=N)N)C(=O)N[C@@H](Cc1c[nH]c2ccccc12)C(N)=O`, the results for the EC50 in assay [1], in assay [3] and in assay [6] were 9.5 nM, 570 nM and 42.5 nM, respectively. The Ki was determined as 350 nM in assay [2], 91.5 nM in assay [4] and 380 nM in assay [5].
Regarding `CC(C)(C)C(=O)N[C@@H](Cc1cnc[nH]1)C(=O)N[C@@H](Cc1ccccc1)C(=O)N[C@@H](CCCNC(=N)N)C(=O)N[C@@H](Cc1c[nH]c2ccccc12)C(N)=O`, the EC50 in assay [1] amounted to 5 nM; in assay [3], 13 nM; in assay [6], 14.5 nM. In addition, the results for the Ki in assay [2], in assay [4] and in assay [5] were 160 nM, 43 nM and 130 nM, respectively.
For `N=C(N)NCCC[C@H](NC(=O)[C@H](Cc1ccccc1)NC(=O)[C@H](Cc1c[nH]cn1)NC(=O)CO)C(=O)N[C@@H](Cc1c[nH]c2ccccc12)C(N)=O`, the EC50 in assay [1] was 7 nM; in assay [3], 300 nM; in assay [6] it was 53 nM. Further, the Ki was found to be 440 nM in assay [2], 125 nM in assay [4] and 630 nM in assay [5].
Regarding `N=C(N)NCCC[C@H](NC(=O)[C@H](Cc1ccccc1)NC(=O)[C@H](Cc1c[nH]cn1)NC(=O)c1ccccc1)C(=O)N[C@@H](Cc1c[nH]c2ccccc12)C(N)=O`, the values for the EC50 in assay [1], in assay [3] and in assay [6] were 6.8 nM, 98.3 nM and 28 nM, respectively. Besides, the Ki amounted to 160 nM in assay [2], 30 nM in assay [4] and 260 nM in assay [5].
Regarding `CSCC(=O)N[C@@H](Cc1cnc[nH]1)C(=O)N[C@@H](Cc1ccccc1)C(=O)N[C@@H](CCCNC(=N)N)C(=O)N[C@@H](Cc1c[nH]c2ccccc12)C(N)=O`, the EC50 was 9 nM in assay [1], 230 nM in assay [3] and 41 nM in assay [6]. Besides, the Ki in assay [2] is 210 nM; in assay [4] it was 57.5 nM; in assay [5], 230 nM.
For `N=C(N)NCCC[C@H](NC(=O)[C@H](Cc1ccccc1)NC(=O)[C@H](Cc1cnc[nH]1)NC(=O)C(N)=O)C(=O)N[C@@H](Cc1c[nH]c2ccccc12)C(N)=O`, the figures for the half-maximal effective concentration (EC50) in assay [1], in assay [3] and in assay [6] were 7 nM, 58 nM and 16.5 nM, respectively. For the same compound, the inhibition constant (Ki) came out at 140 nM in assay [2], 62 nM in assay [4] and 160 nM in assay [5].
On to `N=C(N)NCCC[C@H](NC(=O)[C@H](Cc1ccccc1)NC(=O)[C@H](Cc1cnc[nH]1)NC(=O)C1CC1)C(=O)N[C@@H](Cc1c[nH]c2ccccc12)C(N)=O`, for which the EC50 in assay [1] was found to be 3.5 nM; in assay [3], 71 nM; in assay [6], 20.5 nM. Further, the Ki in assay [2] was 87 nM; in assay [4] it was 43 nM; in assay [5], 210 nM.
Regarding `CCCCC(=O)N[C@@H](Cc1cnc[nH]1)C(=O)N[C@@H](Cc1ccccc1)C(=O)N[C@@H](CCCNC(=N)N)C(=O)N[C@@H](Cc1c[nH]c2ccccc12)C(N)=O`, the values for the EC50 in assay [1], in assay [3] and in assay [6] were 2 nM, 45 nM and 26.5 nM, respectively. For the same compound, the Ki in assay [2] turned out to be 120 nM; in assay [4], 20.5 nM; in assay [5], 170 nM.
`CCC(=O)N[C@@H](Cc1c[nH]cn1)C(=O)N[C@@H](Cc1ccccc1)C(=O)N[C@@H](CCCN=C(N)N)C(=O)N[C@@H](Cc1c[nH]c2ccccc12)C(N)=O`: the EC50 was determined as 7.5 nM in assay [1], 450 nM in assay [3] and 38.5 nM in assay [6]. The Ki was 160 nM in assay [2], 47.5 nM in assay [4] and 540 nM in assay [5].
Turning to `N=C(N)NCCC[C@H](NC(=O)[C@H](Cc1ccccc1)NC(=O)[C@H](Cc1c[nH]cn1)NC(=O)COc1ccc(Cl)cc1)C(=O)N[C@@H](Cc1c[nH]c2ccccc12)C(N)=O`, the EC50 in assay [1] was 2 nM; in assay [3], 6 nM; in assay [6], 11.5 nM. For the same compound, the Ki was found to be 68 nM in assay [2], 6 nM in assay [4] and 110 nM in assay [5].
Consider `NC(=O)[C@H](Cc1c[nH]c2ccccc12)NC(=O)[C@H](CCCN=C(N)N)NC(=O)[C@@H](Cc1ccccc1)NC(=O)[C@H](Cc1cnc[nH]1)NC(=O)CCCc1ccccc1`, for which it took 0.009 nM to reach a half-maximal effect in assay [1] (EC50). The figures for the Ki in assay [4] and in assay [5] were 0.006 nM and 13.5 nM, respectively.
For `N=C(N)NCCC[C@H](NC(=O)[C@H](Cc1ccccc1)NC(=O)[C@H](Cc1c[nH]cn1)NC(=O)CCc1ccccc1)C(=O)N[C@@H](Cc1c[nH]c2ccccc12)C(N)=O`, the EC50 was 0.5 nM in assay [1], 17 nM in assay [3] and 20 nM in assay [6]. Also, the figures for the Ki in assay [2], in assay [4] and in assay [5] were 49 nM, 6 nM and 65 nM, respectively.
For `CC(=O)N[C@@H](Cc1c[nH]cn1)C(=O)N[C@@H](Cc1ccccc1)C(=O)N[C@@H](CCCN=C(N)N)C(=O)N[C@@H](Cc1c[nH]c2ccccc12)C(N)=O`, the EC50 was found to be 13 nM in assay [1] and 170 nM in assay [3]. Moreover, the inhibition constant Ki in assay [4] amounted to 37 nM; in assay [5], 770 nM.
As to `N=C(N)NCCC[C@H](NC(=O)[C@H](Cc1ccccc1)NC(=O)[C@H](Cc1c[nH]cn1)NC(=O)CC(F)(F)F)C(=O)N[C@@H](Cc1c[nH]c2ccccc12)C(N)=O`, the values for the EC50 in assay [1], in assay [3] and in assay [6] were 6.5 nM, 120 nM and 22.5 nM, respectively. Besides, the figures for the Ki in assay [2], in assay [4] and in assay [5] were 170 nM, 63.5 nM and 540 nM, respectively.
`CS(=O)(=O)N[C@@H](Cc1c[nH]cn1)C(=O)N[C@@H](Cc1ccccc1)C(=O)N[C@@H](CCCN=C(N)N)C(=O)N[C@@H](Cc1c[nH]c2ccccc12)C(N)=O`: the EC50 in assay [1] was found to be 88 nM; in assay [3], 840 nM; in assay [6], 21.5 nM. In addition, the Ki in assay [2] is 170 nM; in assay [4], 260 nM; in assay [5], 1900 nM.
With `N=C(N)NCCC[C@H](NC(=O)[C@H](Cc1ccccc1)NC(=O)[C@H](Cc1cnc[nH]1)NC(=O)CCCO)C(=O)N[C@@H](Cc1c[nH]c2ccccc12)C(N)=O`, the EC50 in assay [1] is 13.7 nM; in assay [3], 640 nM; in assay [6] it was 21.3 nM. Further, the figures for the Ki in assay [2], in assay [4] and in assay [5] were 100 nM, 34 nM and 440 nM, respectively.
Regarding `N#CCC(=O)N[C@@H](Cc1c[nH]cn1)C(=O)N[C@@H](Cc1ccccc1)C(=O)N[C@@H](CCCNC(=N)N)C(=O)N[C@@H](Cc1c[nH]c2ccccc12)C(N)=O`, the EC50 was found to be 8 nM in assay [1], 160 nM in assay [3] and 18 nM in assay [6]. Moreover, the inhibition constant Ki in assay [2] amounted to 110 nM; in assay [4] it was 86.5 nM; in assay [5], 350 nM.
Take `N=C(N)NCCC[C@H](NC(=O)[C@H](Cc1ccccc1)NC(=O)[C@H](Cc1c[nH]cn1)NC(=O)Cc1ccccc1)C(=O)N[C@@H](Cc1c[nH]c2ccccc12)C(N)=O`: the EC50 in assay [1] stood at 2 nM; in assay [3] it was 28 nM; in assay [6], 13 nM. Further, the Ki in assay [2] amounted to 100 nM; in assay [4], 17.5 nM; in assay [5], 66.5 nM.
For the compound `N=C(N)NCCC[C@H](NC(=O)[C@H](Cc1ccccc1)NC(=O)[C@@H](N)Cc1cnc[nH]1)C(=O)N[C@@H](Cc1c[nH]c2ccccc12)C(N)=O`, the EC50 amounted to 31.8 nM in assay [1], 350 nM in assay [3] and 29.7 nM in assay [6]. Further, the results for the Ki in assay [2], in assay [4] and in assay [5] were 180 nM, 51 nM and 890 nM, respectively.
For `N=C(N)NCCC[C@H](NC(=O)[C@H](Cc1ccccc1)NC(=O)[C@H](Cc1cnc[nH]1)NS(=O)(=O)c1ccc(Cl)cc1)C(=O)N[C@@H](Cc1c[nH]c2ccccc12)C(N)=O`, the EC50 in assay [1] was found to be 33.3 nM; in assay [3], 390 nM; in assay [6] it was 11 nM. Moreover, the Ki amounted to 66.5 nM in assay [2], 170 nM in assay [4] and 440 nM in assay [5].
Regarding `N=C(N)NCCC[C@H](NC(=O)[C@H](Cc1ccccc1)NC(=O)[C@H](Cc1cnc[nH]1)NC(=O)Cc1ccc(Cl)cc1)C(=O)N[C@@H](Cc1c[nH]c2ccccc12)C(N)=O`, the figures for the EC50 in assay [1], in assay [3] and in assay [6] were 9.5 nM, 9.3 nM and 7.5 nM, respectively. Also, the Ki was 5 nM in assay [2], 3.5 nM in assay [4] and 20 nM in assay [5].
